The values that follow come from patent US9587005B2 (priority 2010, dated 2017).

SMILES strings stand for the structures. Like-named read-outs stand apart in the source and are kept apart here. *1 amine or outer side, *2 acyl side, *3 side chain or, on linkers, in order; H or OH if unused. Where a SMILES comes first, the peptide text is derived from it. Side-chain parts run from the residue outwards. [ ]: non-standard residue; d: D form. The star is where a group is joined. γGlu = O=C(O)[C@H](CCC(=O)[*:2])N[*:1]; Palmitoyl = CCCCCCCCCCCCCCCC(=O)*; Aib = CC(C)(N)C(=O)O

Broadly, the EC50 is the concentration at which the effect is half-maximal.

For one experiment, the target named is T1, GLP-1 receptor (Homo sapiens, UniProt P43220).
T1 construct: expressed in transfected cells; host or cells: HEK293
Put plainly: cAMP induction, firefly luciferase reporter assay in HEK293 cells co-transfected with GLP-1 receptor. In kind it is cell-based. An excerpt:
This example describes an exemplary method of testing the biological activity of the peptides of the present disclosures, which method involves assaying cAMP synthesis.
In general terms: A reporter such as luciferase makes a cellular process visible.

The target of the next experiment is T2, GIP receptor (Homo sapiens, UniProt P48546).
T2 sequence (P48546 22-466): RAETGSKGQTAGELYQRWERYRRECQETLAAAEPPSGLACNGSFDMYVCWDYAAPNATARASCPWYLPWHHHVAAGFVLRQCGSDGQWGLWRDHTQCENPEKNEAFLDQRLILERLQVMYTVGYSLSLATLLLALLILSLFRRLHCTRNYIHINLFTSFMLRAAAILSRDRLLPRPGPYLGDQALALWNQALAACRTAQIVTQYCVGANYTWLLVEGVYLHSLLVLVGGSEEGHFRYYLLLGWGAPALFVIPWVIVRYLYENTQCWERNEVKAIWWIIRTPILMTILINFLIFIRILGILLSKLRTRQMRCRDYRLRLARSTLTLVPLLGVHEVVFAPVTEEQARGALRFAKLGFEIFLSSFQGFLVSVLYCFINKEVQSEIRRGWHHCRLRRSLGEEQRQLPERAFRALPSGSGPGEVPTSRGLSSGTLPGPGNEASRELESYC
Description: cAMP induction, firefly luciferase reporter assay in HEK293 cells co-transfected with GIP receptor. Format: cell-based.

Setting [1] is: EC50 (nM) at GLP-1 Receptor, Table 9, Example 15.
[2] abbreviates: EC50 (nM) at GIP Receptor, Table 9, Example 15.

T1 sequence (P43220 24-463): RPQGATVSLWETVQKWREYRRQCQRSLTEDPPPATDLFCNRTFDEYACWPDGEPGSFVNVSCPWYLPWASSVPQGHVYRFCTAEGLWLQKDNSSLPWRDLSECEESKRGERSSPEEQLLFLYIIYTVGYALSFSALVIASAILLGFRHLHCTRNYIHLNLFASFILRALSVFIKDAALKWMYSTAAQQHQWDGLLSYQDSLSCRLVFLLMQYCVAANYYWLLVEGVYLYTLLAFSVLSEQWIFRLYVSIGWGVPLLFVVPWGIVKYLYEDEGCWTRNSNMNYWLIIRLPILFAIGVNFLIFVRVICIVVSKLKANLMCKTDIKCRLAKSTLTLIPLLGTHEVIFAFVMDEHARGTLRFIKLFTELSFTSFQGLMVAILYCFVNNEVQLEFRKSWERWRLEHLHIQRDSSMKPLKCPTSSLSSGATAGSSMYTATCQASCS

On to `CC[C@H](C)[C@H](NC(=O)[C@H](CO)NC(=O)[C@H](Cc1ccc(O)cc1)NC(=O)[C@H](CC(=O)O)NC(=O)[C@H](CO)NC(=O)[C@@H](NC(=O)[C@H](Cc1ccccc1)NC(=O)[C@@H](NC(=O)CNC(=O)[C@H](CCC(N)=O)NC(=O)C(C)(C)NC(=O)[C@@H](N)Cc1c[nH]cn1)[C@@H](C)O)[C@@H](C)O)C(=O)N[C@@H](Cc1ccc(O)cc1)C(=O)N[C@@H](CC(C)C)C(=O)N[C@@H](CC(=O)O)C(=O)N[C@@H](CCCCN)C(=O)N[C@@H](CCC(N)=O)C(=O)N[C@@H](C)C(=O)N[C@@H](C)C(=O)NC(C)(C)C(=O)N[C@@H](CCC(=O)O)C(=O)N[C@@H](Cc1ccccc1)C(=O)N[C@H](C(=O)N[C@@H](CC(N)=O)C(=O)N[C@@H](Cc1c[nH]c2ccccc12)C(=O)N[C@@H](CC(C)C)C(=O)N[C@@H](CC(C)C)C(=O)N[C@@H](C)C(=O)NCC(=O)NCC(=O)N1CCC[C@H]1C(=O)N[C@@H](CO)C(=O)N[C@@H](CO)C(=O)NCC(=O)N[C@@H](C)C(=O)N1CCC[C@H]1C(=O)N1CCC[C@H]1C(=O)N1CCC[C@H]1C(=O)N[C@@H](CO)C(=O)N[C@@H](CS)C(N)=O)C(C)C` [compound 52] (H-H[Aib]QGTFTSDYSIYLDKQAA[Aib]EFVNWLLAGGPSSGAPPPSC-NH2), for which the EC50 was found to be 0.005 nM at GLP-1 receptor (EC50 (nM) at GLP-1 Receptor, Table 6, Example 12) and 0.006 nM on GIP receptor (EC50 (nM) at GIP Receptor, Table 6, Example 12).

As to `CCCCCCCCCCCCCCCCC(CC(=O)NCCC(=O)NCCCC[C@H](NC(=O)[C@H](CO)NC(=O)[C@@H]1CCCN1C(=O)[C@@H]1CCCN1C(=O)[C@@H]1CCCN1C(=O)[C@H](C)NC(=O)CNC(=O)[C@H](CO)NC(=O)[C@H](CO)NC(=O)[C@@H]1CCCN1C(=O)CNC(=O)CNC(=O)[C@H](C)NC(=O)[C@H](CC(C)C)NC(=O)[C@H](CC(C)C)NC(=O)[C@H](Cc1c[nH]c2ccccc12)NC(=O)[C@H](CC(N)=O)NC(=O)[C@@H](NC(=O)[C@H](Cc1ccccc1)NC(=O)[C@H](CCC(=O)O)NC(=O)C(C)(C)NC(=O)[C@H](C)NC(=O)[C@H](C)NC(=O)[C@H](CCC(N)=O)NC(=O)[C@H](CCCCN)NC(=O)[C@H](CC(=O)O)NC(=O)[C@H](CC(C)C)NC(=O)[C@H](Cc1ccc(O)cc1)NC(=O)[C@@H](NC(=O)[C@H](CO)NC(=O)[C@H](Cc1ccc(O)cc1)NC(=O)[C@H](CC(=O)O)NC(=O)[C@H](CO)NC(=O)[C@@H](NC(=O)[C@H](Cc1ccccc1)NC(=O)[C@@H](NC(=O)CNC(=O)[C@H](CCC(=O)O)NC(=O)C(C)(C)NC(=O)[C@@H](N)Cc1ccc(O)cc1)[C@@H](C)O)[C@@H](C)O)[C@@H](C)CC)C(C)C)C(=O)NCC(N)=O)C(=O)O` (some centres unmarked) [SEQ ID NO: 141], the concentration for a half-maximal effect (EC50) on GLP-1 receptor (setting [1]) came out at 0.001 nM; on GIP receptor (setting [2]), 0.002 nM.

As for `CCCCCCCCCCCCCCCCC(CC(=O)NCCCC[C@H](NC(=O)[C@H](CO)NC(=O)[C@@H]1CCCN1C(=O)[C@@H]1CCCN1C(=O)[C@@H]1CCCN1C(=O)[C@H](C)NC(=O)CNC(=O)[C@H](CO)NC(=O)[C@H](CO)NC(=O)[C@@H]1CCCN1C(=O)CNC(=O)CNC(=O)[C@H](C)NC(=O)[C@H](CC(C)C)NC(=O)[C@H](CC(C)C)NC(=O)[C@H](Cc1c[nH]c2ccccc12)NC(=O)[C@H](CC(N)=O)NC(=O)[C@@H](NC(=O)[C@H](Cc1ccccc1)NC(=O)[C@H](CCC(=O)O)NC(=O)C(C)(C)NC(=O)[C@H](C)NC(=O)[C@H](C)NC(=O)[C@H](CCC(N)=O)NC(=O)[C@H](CCCCN)NC(=O)[C@H](CC(=O)O)NC(=O)[C@H](CC(C)C)NC(=O)[C@H](Cc1ccc(O)cc1)NC(=O)[C@@H](NC(=O)[C@H](CO)NC(=O)[C@H](Cc1ccc(O)cc1)NC(=O)[C@H](CC(=O)O)NC(=O)[C@H](CO)NC(=O)[C@@H](NC(=O)[C@H](Cc1ccccc1)NC(=O)[C@@H](NC(=O)CNC(=O)[C@H](CCC(=O)O)NC(=O)C(C)(C)NC(=O)[C@@H](N)Cc1ccc(O)cc1)[C@@H](C)O)[C@@H](C)O)[C@@H](C)CC)C(C)C)C(=O)NCC(N)=O)C(=O)O` (some centres unmarked) [SEQ ID NO: 140], the half-maximal effective concentration (EC50) on GLP-1 receptor (setting [1]) and at GIP receptor (setting [2]) was 0.001 nM each time.

In the case of `CCCCCCCCCCCCCCCCCCC(CC(=O)NCCCC[C@H](NC(=O)[C@H](CO)NC(=O)[C@@H]1CCCN1C(=O)[C@@H]1CCCN1C(=O)[C@@H]1CCCN1C(=O)[C@H](C)NC(=O)CNC(=O)[C@H](CO)NC(=O)[C@H](CO)NC(=O)[C@@H]1CCCN1C(=O)CNC(=O)CNC(=O)[C@H](C)NC(=O)[C@H](CC(C)C)NC(=O)[C@H](CC(C)C)NC(=O)[C@H](Cc1c[nH]c2ccccc12)NC(=O)[C@H](CC(N)=O)NC(=O)[C@@H](NC(=O)[C@H](Cc1ccccc1)NC(=O)[C@H](CCC(=O)O)NC(=O)C(C)(C)NC(=O)[C@H](C)NC(=O)[C@H](C)NC(=O)[C@H](CCC(N)=O)NC(=O)[C@H](CCCCN)NC(=O)[C@H](CC(=O)O)NC(=O)[C@H](CC(C)C)NC(=O)[C@H](Cc1ccc(O)cc1)NC(=O)[C@@H](NC(=O)[C@H](CO)NC(=O)[C@H](Cc1ccc(O)cc1)NC(=O)[C@H](CC(=O)O)NC(=O)[C@H](CO)NC(=O)[C@@H](NC(=O)[C@H](Cc1ccccc1)NC(=O)[C@@H](NC(=O)CNC(=O)[C@H](CCC(=O)O)NC(=O)C(C)(C)NC(=O)[C@@H](N)Cc1ccc(O)cc1)[C@@H](C)O)[C@@H](C)O)[C@@H](C)CC)C(C)C)C(=O)NCC(N)=O)C(=O)O` (some centres unmarked) [SEQ ID NO: 142], the concentration giving a half-maximal response (EC50) at GLP-1 receptor (setting [1]) came out at 0.004 nM; at GIP receptor (setting [2]), 0.001 nM.

On GIP receptor (GIP (0.01), Table 8, Example 14, activity at the GIP receptor), `CCCCCCCCCCCCCCCC(=O)N[C@@H](CCC(=O)NCCCC[C@H](NC(=O)[C@H](CC(=O)O)NC(=O)[C@H](CO)NC(=O)[C@@H](NC(=O)[C@H](Cc1ccccc1)NC(=O)[C@@H](NC(=O)CNC(=O)[C@H](CCC(N)=O)NC(=O)C(C)(C)NC(=O)[C@@H](N)Cc1c[nH]cn1)[C@@H](C)O)[C@@H](C)O)C(=O)N[C@@H](CO)C(=O)N[C@@H](CCCCN)C(=O)N[C@@H](Cc1ccc(O)cc1)C(=O)N[C@@H](CC(C)C)C(=O)N[C@@H](CC(=O)O)C(=O)N[C@@H](CCC(=O)O)C(=O)N[C@@H](CCCNC(=N)N)C(=O)N[C@@H](CCCNC(=N)N)C(=O)N[C@@H](C)C(=O)NC(C)(C)C(=O)N[C@@H](CCC(=O)O)C(=O)N[C@@H](Cc1ccccc1)C(=O)N[C@H](C(=O)N[C@@H](CCC(N)=O)C(=O)N[C@@H](Cc1c[nH]c2ccccc12)C(=O)N[C@@H](CC(C)C)C(=O)N[C@@H](CC(C)C)C(=O)N[C@@H](CC(=O)O)C(=O)NCC(=O)NCC(=O)N1CCC[C@H]1C(=O)N[C@@H](CO)C(=O)N[C@@H](CO)C(=O)NCC(=O)N[C@@H](C)C(=O)N1CCC[C@H]1C(=O)N1CCC[C@H]1C(=O)N1CCC[C@H]1C(=O)N[C@@H](CO)C(N)=O)C(C)C)C(=O)O` [SEQ ID NO: 37] (H-H[Aib]QGTFTSDK([γGlu-Palmitoyl])SKYLDERRA[Aib]EFVQWLLDGGPSSGAPPPS-NH2; N-terminus assumed) returned an EC50 of 0.003 nM.

For the molecule `CC[C@H](C)[C@H](NC(=O)[C@H](CO)NC(=O)[C@H](Cc1ccc(O)cc1)NC(=O)[C@H](CC(=O)O)NC(=O)[C@H](CO)NC(=O)[C@@H](NC(=O)[C@H](Cc1ccccc1)NC(=O)[C@@H](NC(=O)CNC(=O)[C@H](CCC(N)=O)NC(=O)C(C)(C)NC(=O)[C@@H](N)Cc1ccc(O)cc1)[C@@H](C)O)[C@@H](C)O)C(=O)N[C@@H](Cc1ccc(O)cc1)C(=O)N[C@@H](CC(C)C)C(=O)N[C@@H](CC(=O)O)C(=O)N[C@@H](CCCCN)C(=O)N[C@@H](CCCCN)C(=O)N[C@@H](C)C(=O)N[C@@H](C)C(=O)NC(C)(C)C(=O)N[C@@H](CCC(=O)O)C(=O)N[C@@H](Cc1ccccc1)C(=O)N[C@H](C(=O)N[C@@H](CC(N)=O)C(=O)N[C@@H](Cc1c[nH]c2ccccc12)C(=O)N[C@@H](CC(C)C)C(=O)N[C@@H](CC(C)C)C(=O)N[C@@H](C)C(=O)NCC(=O)NCC(=O)N1CCC[C@H]1C(=O)N[C@@H](CO)C(=O)N[C@@H](CO)C(=O)NCC(=O)N[C@@H](C)C(=O)N1CCC[C@H]1C(=O)N1CCC[C@H]1C(=O)N1CCC[C@H]1C(=O)N[C@@H](CO)C(=O)N[C@@H](CCCCN)C(N)=O)C(C)C` [mt-402], the EC50 at GLP-1 receptor (read-out: GLP-1 Receptor EC50, Table 1, Example 6) amounted to 0.007 nM.

`CC[C@H](C)[C@H](NC(=O)[C@H](CO)NC(=O)[C@H](Cc1ccc(O)cc1)NC(=O)[C@H](CC(=O)O)NC(=O)[C@H](CO)NC(=O)[C@@H](NC(=O)[C@H](Cc1ccccc1)NC(=O)[C@@H](NC(=O)CNC(=O)[C@H](CCC(N)=O)NC(=O)C(C)(C)NC(=O)[C@@H](N)Cc1c[nH]cn1)[C@@H](C)O)[C@@H](C)O)C(=O)N[C@@H](Cc1ccc(O)cc1)C(=O)N[C@@H](CC(C)C)C(=O)N[C@@H](CC(=O)O)C(=O)N[C@@H](CCC(=O)O)C(=O)N[C@@H](CCCCN)C(=O)N[C@@H](CCCNC(=N)N)C(=O)N[C@@H](C)C(=O)N[C@@H](CCCCN)C(=O)N[C@@H](CCC(=O)O)C(=O)N[C@@H](Cc1ccccc1)C(=O)N[C@H](C(=O)N[C@@H](CS)C(=O)N[C@@H](Cc1c[nH]c2ccccc12)C(=O)N[C@@H](CC(C)C)C(=O)N[C@@H](CC(C)C)C(=O)N[C@@H](C)C(=O)NCC(=O)NCC(=O)N1CCC[C@H]1C(=O)N[C@@H](CO)C(=O)N[C@@H](CO)C(=O)NCC(=O)N[C@@H](C)C(=O)N1CCC[C@H]1C(=O)N1CCC[C@H]1C(=O)N1CCC[C@H]1C(=O)N[C@@H](CO)C(=O)N[C@@H](CCCCN)C(N)=O)C(C)C` [SEQ ID NO: 230] (H-H[Aib]QGTFTSDYSIYLDEKRAKEFVCWLLAGGPSSGAPPPSK-NH2; N-terminus assumed) gave an EC50 at GLP-1 receptor (GLP-1 EC50 (nM), Table 17, Example 25) of 0.222 nM.
